Results published in publication PMC2888773 (Cellular microbiology, 2010).

Target: Ov-CF-1 (cathepsin F) (Opisthorchis viverrini, UniProt Q5PXS3)
Assay: fluorogenic release of NHMec
Type: biochemical
Conditions: autoactivation at pH 4.5, 37 °C, 1 mM DTT, 1 mM EDTA

Cc1cc(=O)oc2cc(NC(=O)[C@H](CCCNC(=N)N)NC(=O)[C@H](CC(C)C)NC(=O)OCc3ccccc3)ccc12 [Z-Leu-Arg-NHMec]
fluorogenic release of NHMec (ex 380 / em 460 nm): The rate of hydrolysis of Z-Leu-Arg-NHMec
